Results from patent US8394828B2 (Janssen Pharmaceutica, NV, priority 2003, dated 2013).

Columns and labels:
[1] = system: rings of bronchial tissue obtained from male guinea pigs; assay: Guinea Pig Bronchial Ring Constriction; conditions: tissues exposed to compound for 30 min; capsaicin 10 nM-10 μM; FIG. 7
Method: Two mm rings of bronchial tissue obtained from male guinea pigs were suspended in normal Krebs solution between two wire hooks under an initial loading tension of 1 gram. The saline was maintained in a 5% CO2 and 95% O2 atmosphere at 37° C. in the presence of indomethacin (5 μM). A sub-maximal dose of 5-methylfurmethide (5 Mef, 1 μM) was added to each tissue to determine responsiveness using an isometric force transducer. After washout, tissues were exposed to compounds or vehicle for 30 min and treated with thiorphan (10 μM, 5% Na2CO3). A concentration-response curve was then constructed using capsaicin (10 nM-10 μM) increasing in 0.5 log unit increments. The dose response curve was calculated as % max of the 5-Mef response and estimated pA2 were determined.

[2] = system: carrageenan paw-induced thermal hyperalgesia; assay: Carrageenan Paw-induced Thermal Hyperalgesia; type: in vivo, mice or rats; conditions: 30 mg/kg po; read-out: % Recovery
[3] = system: Dextran Sulfate Sodium Induced Colitis; assay: Mouse Colitis Model (Dextran Sulfate Sodium Induced Colitis); type: in vivo, mice; conditions: 5% DSS in drinking water, twice daily, orally, 0.05-30 mg/kg
From the text: These are similar to what occurs in human colitis.
Balb/c female mice are provided with a solution of tap water containing 5% DSS (ICN chemicals) ad libitum over a 7-day period. […] This material may be administered orally or intraperitoneally, once or twice daily. At the end of this period, the animals are euthanized and their colons are collected for further analysis. Among the parameters analyzed are the length of the colon starting from 1 cm above the anus to the top of the cecum, the weight of the colon, the consistency of any stools found within the colon, and the gross macroscopic appearance of the colon. The distal colon between the 1st and the 4th centimeter are dissected into two halves. One half is placed in 10% neutral buffered formalin for later histological analysis if desired. The other half is cleaned in a bath of physiological buffer, patted dry, weighed and then placed in a solution of 0.5% hexadecyltrimethylammonium bromide (HTAB; Sigma) dissolved in 50 mM phosphate buffer, adjusted to pH 5.4. The tissue sample thus treated is then frozen at −80° C.
For the following parameters, colon length, colon weight, stool consistency and appearance and macroscopic damage a scoring system is used to describe the changes. The 4 scores for each animal are added to provide a Total Score. Thus,
Stool Score: • 0=normal (well-formed fecal pellets); • 1=loosely-shaped moist pellets; • 2=amorphous, moist, sticky pellets; • 3=bloody diarrhea. Presence of blood in stool: add 1 to scores <3
Colon Damage Score: • 0=no inflammation • 1=reddening mild inflammation; • 2=moderate inflammation or more widely distributed; • 3=severe inflammation and/or extensively distributed
Colon Weight Score: • 0=<5% weight loss; • 1=5-14% weight loss; • 2=15-24% weight loss; • 3=25-35% weight loss; 4=>35% weight loss.
Colon Length Score: • 0=<5% shortening; • 1=5-14% shortening; • 2=15-24% shortening; • 3=25-35% shortening; • 4=>35% shortening.
Colon weight changes and colon length changes are also directly measured and the net changes compared to DSS and untreated controls are used to calculate a % inhibition of colon weight loss or colon shrinkage induced by DSS treatment.
The tissue sample previously frozen at −80° C. in 0.5% solution of HTAB is thawed, homogenized twice for 15 seconds using a Brinkman Polytron homogenizer fitted with a TS10 generator. The crude homogenate is next sonicated at 60 watts for two 5-second bursts and then centrifuged for 20 minutes at 15000×g. The supernatant of this homogenate is collected, aliquoted and frozen at −70° C. for future analysis for myeloperoxidase analysis (MPO). MPO is an intracellular enzyme found in neutrophils and can be considered a surrogate marker for neutrophil infiltration into tissues, including those afflicted with colitis (Diaz-Granados, et al., 2000).
Statistical analyses were performed by ANOVA using Multiple Comparisons Test and Tukey's test.

[4] = system: mice; assay: Hot-plate test, reference compounds; type: in vivo; conditions: i.p., pre-treat time 30 min
From the text: The hot-plate test originally described by Eddy and Leimbach (J. Pharmacol. Exp. Ther. 107:385-393, 1953) with minor modifications (e.g., O'Callaghan and Holtzman, J. Pharmacol. Exp. Ther. 192: 497-505, 1975) is used to ascertain the analgesic potential of compounds.
Generally, male, Swiss-derived albino mice (CRS-CD1®; Charles River Laboratories), weighing 18-24 g at the time of testing or male Sprague Dawley rats (CD1, Charles River Laboratories) 100-300 g are used. The animals are weighed, placed in a plastic box with wood chips (typically 10 mice or 4-6 rats per box) and allowed to acclimate before testing. […]
An animal is placed on the heated surface and the time interval between placement and a shaking, licking or tucking of the hindpaw is recorded as the control reaction time (RTC). […] A percent maximum possible effect (% MPE) can also be calculated from the following formula: % MPE=100×(RTdc−RTc)/(CO−RTc), where RTdc and RTc are drug-treated and control reaction times, respectively, and CO is cut-off time.
As a screen, the largest possible nontoxic dose of test drug is administered. If activity is detected, and if appropriate, generally 3-5 doses (usually 10 mice or 6-8 rats per dose) are used to construct a dose response curve or time course. […] The ED50 value is determined at the time of peak effect.

Question: For `O=C(Nc1cnc2ccccc2c1)c1ccc(N2CC3CCCC(C3)C2)cc1` [Example 178, 4-(3-Aza-bicyclo[3.3.1]non-3-yl)-N-quinolin-3-yl-benzamide], which “shift of the capsaicin dose-response curve” value [1] is on record?
Answer: Its value is “shifted the capsaicin dose-response curve to the right”.

Question: What does the source list for `CN(c1ccc(C(=O)Nc2cnc3ccccc3c2)cc1)C1CCCCC1` [Example 102, 4-(Cyclohexyl-methyl-amino)-N-quinolin-3-yl-benzamide]?
Answer: inhibition in vivo at 30 mg/kg [2]: 55%; inhibition of colon weight loss ([3]; FIG. 1): significant (p<0.05) inhibition; inhibition of colon shrinkage ([3]; FIG. 2): significant (p<0.05) inhibition; Colon Damage Score ([3]; FIG. 3): diminished (p>0.05), but not statistically significantly; Stool Score ([3]; FIG. 4): decreased (p>0.05), but not statistically significantly; inhibition of Total Score ([3]; FIG. 5): significant (p<0.05) inhibition; Myleoperoxidase (MPO) inhibition ([3]; colon tissue, FIG. 6): inhibition (p>0.05)

Question: How did the “ED50 (95% C.I.)” value [4] turn out when `Cc1cc(CC(=O)O)n(C)c1C(=O)c1ccc(Cl)cc1` [Zomepirac] was run?
Answer: Its value is “inactive”.
